Source: PubChem BioAssay (NCI)
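1) Cells in 96-well plates. 2) Compound, 48 h, 5 concentrations. 3) Linear interpolation between surrounding doses. 4) Unreached endpoint = highest concentration. GI50 is the concentration that inhibits growth by half. TGI is the concentration that stops growth completely.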

Tests used:
Test in all cases: inhibition of tumour cell growth, NCI panel, 48 h; in the data active = GI50 below about 0.43 µM; inactive = the rest
NCI-H522 lung = system: NCI-H522 lung
RXF 393 renal = system: RXF 393 renal
SW-620 colon = system: SW-620 colon
HS 578T breast = system: HS 578T breast
COLO 205 colon = system: COLO 205 colon
IGROV1 ovarian = system: IGROV1 ovarian
CAKI-1 renal = system: CAKI-1 renal
TK-10 renal = system: TK-10 renal
OVCAR-3 ovarian = system: OVCAR-3 ovarian
EKVX NSCLC = system: EKVX NSCLC
NCI-H226 lung = system: NCI-H226 lung
SK-OV-3 ovarian = system: SK-OV-3 ovarian
PC-3 prostate = system: PC-3 prostate
OVCAR-5 ovarian = system: OVCAR-5 ovarian
HCT-15 colon = system: HCT-15 colon
SN12C renal = system: SN12C renal
A549 NSCLC = system: A549 NSCLC
UACC-62 melanoma = system: UACC-62 melanoma
T-47D breast = system: T-47D breast
DU-145 prostate = system: DU-145 prostate
UACC-257 melanoma = system: UACC-257 melanoma
KM12 colon = system: KM12 colon
CCRF-CEM leukemia = system: CCRF-CEM leukemia
HOP-62 NSCLC = system: HOP-62 NSCLC
HCT-116 colon = system: HCT-116 colon
SF-539 CNS = system: SF-539 CNS
MDA-MB-435 = system: MDA-MB-435
RPMI-8226 leukemia = system: RPMI-8226 leukemia
A498 renal = system: A498 renal
HOP-92 NSCLC = system: HOP-92 NSCLC
NCI-H23 lung = system: NCI-H23 lung
ACHN renal = system: ACHN renal
SK-MEL-2 melanoma = system: SK-MEL-2 melanoma
U251 CNS = system: U251 CNS
SF-295 CNS = system: SF-295 CNS
HCC-2998 colon = system: HCC-2998 colon
NCI/ADR-RES ovarian = system: NCI/ADR-RES ovarian
LOX IMVI melanoma = system: LOX IMVI melanoma
BT-549 breast = system: BT-549 breast
786-0 renal = system: 786-0 renal
HL-60(TB) leukemia = system: HL-60(TB) leukemia
SF-268 CNS = system: SF-268 CNS
UO-31 renal = system: UO-31 renal
MCF7 breast = system: MCF7 breast
OVCAR-8 ovarian = system: OVCAR-8 ovarian
NCI-H460 lung = system: NCI-H460 lung
MALME-3M melanoma = system: MALME-3M melanoma
SNB-19 CNS = system: SNB-19 CNS
M14 melanoma = system: M14 melanoma
K-562 leukemia = system: K-562 leukemia
MDA-MB-231 breast = system: MDA-MB-231 breast
SK-MEL-5 melanoma = system: SK-MEL-5 melanoma

O=C(OC(CNc1c(C(=O)c2ccccc2)c(=O)n(Cc2ccccc2)c(=O)n1Cc1ccccc1)CN1CCOCC1)c1ccccc1 (centres undefined)
82.8 µM: TGI (RPMI-8226 leukemia)
> 100 µM: TGI (NCI-H522 lung) | TGI (RXF 393 renal) | TGI (SW-620 colon) | TGI (HS 578T breast) | TGI (COLO 205 colon) | TGI (IGROV1 ovarian) | TGI (CAKI-1 renal) | TGI (TK-10 renal) | TGI (OVCAR-3 ovarian) | TGI (EKVX NSCLC) | TGI (NCI-H226 lung) | TGI (SK-OV-3 ovarian) | TGI (PC-3 prostate) | TGI (OVCAR-5 ovarian) | TGI (HCT-15 colon) | TGI (SN12C renal) | TGI (A549 NSCLC) | TGI (UACC-62 melanoma) | TGI (T-47D breast) | TGI (DU-145 prostate) | TGI (UACC-257 melanoma) | TGI (KM12 colon) | TGI (CCRF-CEM leukemia) | TGI (HOP-62 NSCLC) | TGI (HCT-116 colon) | TGI (SF-539 CNS) | TGI (MDA-MB-435) | TGI (A498 renal) | TGI (HOP-92 NSCLC) | TGI (NCI-H23 lung) | TGI (ACHN renal) | TGI (SK-MEL-2 melanoma) | TGI (U251 CNS) | TGI (SF-295 CNS) | TGI (HCC-2998 colon) | TGI (NCI/ADR-RES ovarian) | TGI (LOX IMVI melanoma) | TGI (BT-549 breast) | TGI (786-0 renal) | TGI (HL-60(TB) leukemia) | TGI (SF-268 CNS) | TGI (UO-31 renal) | TGI (MCF7 breast) | TGI (OVCAR-8 ovarian) | TGI (NCI-H460 lung) | TGI (MALME-3M melanoma) | TGI (SNB-19 CNS) | TGI (M14 melanoma) | TGI (K-562 leukemia) | TGI (MDA-MB-231 breast) | TGI (SK-MEL-5 melanoma)
inactive: GI50 (NCI-H522 lung) 47.2 µM | GI50 (RXF 393 renal) 34.7 µM | GI50 (SW-620 colon) 76.4 µM | GI50 (HS 578T breast) 40.2 µM | GI50 (COLO 205 colon) 46.3 µM | GI50 (IGROV1 ovarian) 65.2 µM | GI50 (CAKI-1 renal) 34.7 µM | GI50 (TK-10 renal) 69 µM | GI50 (OVCAR-3 ovarian) 34.1 µM | GI50 (EKVX NSCLC) 52.9 µM | GI50 (NCI-H226 lung) 49.9 µM | GI50 (SK-OV-3 ovarian) > 100 µM | GI50 (PC-3 prostate) 38.6 µM | GI50 (OVCAR-5 ovarian) > 100 µM | GI50 (HCT-15 colon) 38.5 µM | GI50 (SN12C renal) 50.7 µM | GI50 (A549 NSCLC) 49.3 µM | GI50 (UACC-62 melanoma) 38.8 µM | GI50 (T-47D breast) > 100 µM | GI50 (DU-145 prostate) > 100 µM | GI50 (UACC-257 melanoma) 76.8 µM | GI50 (KM12 colon) 42.1 µM | GI50 (CCRF-CEM leukemia) 33.9 µM | GI50 (HOP-62 NSCLC) 55.5 µM | GI50 (HCT-116 colon) 41.1 µM | GI50 (SF-539 CNS) 91.8 µM | GI50 (MDA-MB-435) 86.7 µM | GI50 (RPMI-8226 leukemia) 26.8 µM | GI50 (A498 renal) 37.4 µM | GI50 (HOP-92 NSCLC) 29.6 µM | GI50 (NCI-H23 lung) 43.2 µM | GI50 (ACHN renal) 46.8 µM | GI50 (SK-MEL-2 melanoma) 56.7 µM | GI50 (U251 CNS) 42.3 µM | GI50 (SF-295 CNS) 41.6 µM | GI50 (HCC-2998 colon) 47.4 µM | GI50 (NCI/ADR-RES ovarian) 47.7 µM | GI50 (LOX IMVI melanoma) 59 µM | GI50 (BT-549 breast) 41.3 µM | GI50 (786-0 renal) 70.4 µM | GI50 (HL-60(TB) leukemia) 30.9 µM | GI50 (SF-268 CNS) > 100 µM | GI50 (UO-31 renal) 52.8 µM | GI50 (MCF7 breast) 48.1 µM | GI50 (OVCAR-8 ovarian) 64.7 µM | GI50 (NCI-H460 lung) 46.2 µM | GI50 (MALME-3M melanoma) > 100 µM | GI50 (SNB-19 CNS) 71.3 µM | GI50 (M14 melanoma) 38.4 µM | GI50 (K-562 leukemia) 32.3 µM | GI50 (MDA-MB-231 breast) 42.8 µM | GI50 (SK-MEL-5 melanoma) 37.7 µM
